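Step 1: Grow cells in 96-well plates. Step 2: Expose to compound for 48 hours at 5 concentrations. Step 3: Interpolate endpoints linearly; if unreached, use highest concentration. GI50 = concentration required for 50% inhibition of growth.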 The source made the active and inactive calls. No stated cut-off is given here; in the data, active = GI50 up to about 1.1 µM and inactive = higher.
Experiments:
Assay in all cases: NCI anticancer screen, dose series, 48 h
[1] = tested on: ACHN
[2] = tested on: Hs-578T
[3] = tested on: MCF7
[4] = tested on: MDA-MB-231
[5] = tested on: MDA-N
[6] = tested on: Malme-3M
[7] = tested on: NCI-H23
[8] = tested on: NCI-H460
[9] = tested on: OVCAR-8
[10] = tested on: PC-3
[11] = tested on: SF-295
[12] = tested on: SK-MEL-28
[13] = tested on: SK-MEL-5
[14] = tested on: SR
[15] = tested on: T47D
[16] = tested on: U-251
[17] = tested on: UACC-257
[18] = tested on: UO-31
[19] = tested on: HCT-116

Row | SMILES | GI50 [1] | GI50 [2] | GI50 [3] | GI50 [4] | GI50 [5] | GI50 [6] | GI50 [7] | GI50 [8] | GI50 [9] | GI50 [10] | GI50 [11] | GI50 [12] | GI50 [13] | GI50 [14] | GI50 [15] | GI50 [16] | GI50 [17] | GI50 [18] | GI50 [19]
1 | Cc1sc2nc(-c3ccc(Cl)c([N+](=O)[O-])c3)c(/C=N/NC(=N)N)n2c1C | 1.46 µM (inactive) | 1.79 µM (inactive) | 0.685 µM (active) | 0.615 µM (active) | 0.893 µM (active) | 2 µM (inactive) | 1.73 µM (inactive) | 1.63 µM (inactive) | 0.824 µM (active) | 1.52 µM (inactive) | 1.76 µM (inactive) | 0.973 µM (active) | 1.53 µM (inactive) | 0.229 µM (active) | 1.46 µM (inactive) | 0.341 µM (active) | 1.29 µM (inactive) | 1.65 µM (inactive) | 
2 | CC1(C)C2CC1C(/C=N\OCC(=O)O)=CC2=O (stereo not given) | > 100 µM (inactive) | > 100 µM (inactive) | > 100 µM (inactive) | > 100 µM (inactive) | > 100 µM (inactive) | > 100 µM (inactive) | > 100 µM (inactive) | > 100 µM (inactive) | > 100 µM (inactive) | > 100 µM (inactive) | > 100 µM (inactive) | > 100 µM (inactive) | > 100 µM (inactive) | > 100 µM (inactive) | > 100 µM (inactive) | > 100 µM (inactive) | > 100 µM (inactive) | > 100 µM (inactive) | > 100 µM (inactive)
3 | O=[N+]([O-])c1ccc(Cl)cc1C1ON=C(c2ccccc2)N1C12CC3CC(CC(C3)C1)C2 (stereo not given) | > 100 µM (inactive) | > 100 µM (inactive) | > 100 µM (inactive) | > 100 µM (inactive) | > 100 µM (inactive) | 49.4 µM (inactive) | > 100 µM (inactive) | > 100 µM (inactive) |  | > 100 µM (inactive) | > 100 µM (inactive) | > 100 µM (inactive) | > 100 µM (inactive) | > 100 µM (inactive) | > 100 µM (inactive) | > 100 µM (inactive) | > 100 µM (inactive) | > 100 µM (inactive) | 86.9 µM (inactive)
4 | COc1ccc(/C=C2\N=C(N3CCOCC3)NC2=O)cc1 | > 100 µM (inactive) | > 100 µM (inactive) | > 100 µM (inactive) | > 100 µM (inactive) | > 100 µM (inactive) | > 100 µM (inactive) | > 100 µM (inactive) |  | > 100 µM (inactive) | > 100 µM (inactive) | > 100 µM (inactive) | > 100 µM (inactive) |  | > 100 µM (inactive) | > 100 µM (inactive) | > 100 µM (inactive) | > 100 µM (inactive) | > 100 µM (inactive) | > 100 µM (inactive)
5 | COc1ccc(C2CC(c3c(C)nn(-c4ccccc4)c3-c3ccc(C)cc3O)=NN2c2ccccc2)cc1 (stereo not given) | 13.9 µM (inactive) | 10.4 µM (inactive) | 8.07 µM (inactive) | > 46.5 µM (inactive) | 21.4 µM (inactive) | 19.9 µM (inactive) | 3.79 µM (inactive) | 3.42 µM (inactive) | 20.4 µM (inactive) | 3.78 µM (inactive) | 6.93 µM (inactive) | > 89.3 µM (inactive) | 18.5 µM (inactive) | 13.3 µM (inactive) | 9.57 µM (inactive) | 33.3 µM (inactive) | 67.3 µM (inactive) | 24.7 µM (inactive) | 12.7 µM (inactive)
6 | CCOC(=O)CC(=O)C(=O)NN=C1NCCCN1 | > 100 µM (inactive) | > 100 µM (inactive) | > 100 µM (inactive) | > 100 µM (inactive) | > 100 µM (inactive) | > 100 µM (inactive) | > 100 µM (inactive) | > 100 µM (inactive) | > 100 µM (inactive) | > 100 µM (inactive) | > 100 µM (inactive) | > 100 µM (inactive) | > 100 µM (inactive) | > 100 µM (inactive) | > 100 µM (inactive) | > 100 µM (inactive) |  | > 100 µM (inactive) | > 100 µM (inactive)
7 | Cn1c2ccccc2n2c3ncccc3c(=S)c(C#N)c12 | > 100 µM (inactive) | > 100 µM (inactive) | > 100 µM (inactive) | > 100 µM (inactive) | > 100 µM (inactive) | > 100 µM (inactive) | > 100 µM (inactive) | 90.4 µM (inactive) | > 100 µM (inactive) | > 100 µM (inactive) | > 100 µM (inactive) | > 100 µM (inactive) | > 100 µM (inactive) | 71.4 µM (inactive) | > 100 µM (inactive) | > 100 µM (inactive) |  | > 100 µM (inactive) | > 100 µM (inactive)
8 | CC(C)=C[C@H]1C[C@H](C)[C@H]2CC[C@H](C)c3c2c1c(C)c1ncoc31 | 18.1 µM (inactive) | 17.6 µM (inactive) | 15 µM (inactive) | 20.4 µM (inactive) | 17.5 µM (inactive) | 13.5 µM (inactive) |  | 18.4 µM (inactive) | 19.2 µM (inactive) | 17 µM (inactive) | 17 µM (inactive) | 18.7 µM (inactive) | 13.9 µM (inactive) | 14.1 µM (inactive) | 17.8 µM (inactive) | 16.8 µM (inactive) | 18.4 µM (inactive) | 17.6 µM (inactive) | 18.6 µM (inactive)
9 | COC(=O)Oc1nn(C(=O)OC)c(=O)c2ccccc12 | > 100 µM (inactive) | 65.8 µM (inactive) | > 100 µM (inactive) | 95.3 µM (inactive) | > 100 µM (inactive) | 42.4 µM (inactive) | > 100 µM (inactive) |  | > 100 µM (inactive) | > 100 µM (inactive) | > 100 µM (inactive) | > 100 µM (inactive) | > 100 µM (inactive) | > 100 µM (inactive) | 74.5 µM (inactive) | > 100 µM (inactive) | > 100 µM (inactive) | > 100 µM (inactive) | > 100 µM (inactive)
10 | COC(=O)C1(NC(=O)C(CC(=O)OCc2ccccc2)NC(=O)OCc2ccccc2)CCCCCC1 (stereo not given) | 34 µM (inactive) | 15.6 µM (inactive) | 33 µM (inactive) | 32.4 µM (inactive) | 24.7 µM (inactive) | 24.1 µM (inactive) | 41.8 µM (inactive) | 34.8 µM (inactive) | 27.2 µM (inactive) | 28.6 µM (inactive) | 34.4 µM (inactive) | 26.3 µM (inactive) | 15.4 µM (inactive) | 18.4 µM (inactive) | 30.8 µM (inactive) | 44.9 µM (inactive) |  | 35.1 µM (inactive) | 31 µM (inactive)
11 | CC(=O)OCC1OC(N2C(c3ccccc3)=CC(c3ccco3)C(C#N)=C2S)C(OC(C)=O)C(OC(C)=O)C1OC(C)=O (stereo not given) | 7.85 µM (inactive) | 2.17 µM (inactive) | 25.5 µM (inactive) | 3.13 µM (inactive) | 11.3 µM (inactive) | 3.04 µM (inactive) | 5.79 µM (inactive) | 14.7 µM (inactive) | 2.83 µM (inactive) | 11.5 µM (inactive) | 14.4 µM (inactive) | 8.79 µM (inactive) | 3.01 µM (inactive) | 7.85 µM (inactive) | 30.4 µM (inactive) | 2.54 µM (inactive) | > 32.1 µM (inactive) | 9.23 µM (inactive) | 3.18 µM (inactive)
12 | Nc1nc(NCc2ccccc2)cc(NCc2ccccc2)n1 | 7.26 µM (inactive) | 2.86 µM (inactive) | 2.59 µM (inactive) | 3.49 µM (inactive) | 1.14 µM (inactive) | 5.66 µM (inactive) | 5 µM (inactive) | 4.73 µM (inactive) | 4.11 µM (inactive) | 3.64 µM (inactive) | 4.91 µM (inactive) | 12 µM (inactive) | 3.71 µM (inactive) | 2.72 µM (inactive) | 4.48 µM (inactive) | 5.14 µM (inactive) | 5.69 µM (inactive) | 6.31 µM (inactive) | 3.45 µM (inactive)
13 | OC1c2ccccc2CCC1C(O)(C(F)(F)F)C(F)(F)F (stereo not given) | > 100 µM (inactive) | > 100 µM (inactive) | 46.3 µM (inactive) | 11 µM (inactive) | > 100 µM (inactive) | > 100 µM (inactive) | 85.1 µM (inactive) | > 100 µM (inactive) | > 100 µM (inactive) | > 100 µM (inactive) | > 100 µM (inactive) | > 100 µM (inactive) | > 100 µM (inactive) | > 100 µM (inactive) | > 100 µM (inactive) | > 100 µM (inactive) |  | > 100 µM (inactive) | > 100 µM (inactive)
14 | Nc1cccc2cc(S(=O)(=O)Nc3ccc(C(=O)O)cc3)ccc12 | > 100 µM (inactive) | > 100 µM (inactive) | > 100 µM (inactive) | > 100 µM (inactive) | > 100 µM (inactive) | > 100 µM (inactive) | > 100 µM (inactive) | > 100 µM (inactive) | > 100 µM (inactive) | > 100 µM (inactive) | > 100 µM (inactive) | > 100 µM (inactive) | > 100 µM (inactive) | > 100 µM (inactive) | > 100 µM (inactive) | > 100 µM (inactive) | > 100 µM (inactive) | > 100 µM (inactive) | > 100 µM (inactive)
15 | C=CCOc1ccc(C2(O)c3ccccc3C3=NCCCN32)cc1 (stereo not given) | 41.6 µM (inactive) | > 73.8 µM (inactive) | 43.7 µM (inactive) | > 63 µM (inactive) | 36.1 µM (inactive) | 12.3 µM (inactive) | 60.1 µM (inactive) | > 100 µM (inactive) | > 100 µM (inactive) | 33.5 µM (inactive) | 51.5 µM (inactive) | 24.5 µM (inactive) | 22.1 µM (inactive) | 25.2 µM (inactive) | 27.9 µM (inactive) | 43.2 µM (inactive) | 21.4 µM (inactive) | 51.8 µM (inactive) | 49.9 µM (inactive)
